Like-named read-outs stand apart in the source and are kept apart here.
Assays:
Format in all cases: biochemical
FGFR2 = FGFR2 (Homo sapiens (Human), UniProt P21802); assay: FGFR Enzymatic Assay (FRET peptide phosphorylation), FGFR2
[1] = molecular target: wild-type un-phosphorylated FGFR3 protein (Homo sapiens (Human), UniProt P22607); assay: FGFR Enzymatic Assay (FRET peptide phosphorylation), FGFR3; details: pre-incubated for 4 hours
FGFR1 = FGFR1 (Homo sapiens (Human), UniProt P11362); assay: FGFR Enzymatic Assay (FRET peptide phosphorylation), FGFR1; details: pre-incubated for 4 hours
Chain of FGFR1 (P11362 22-822): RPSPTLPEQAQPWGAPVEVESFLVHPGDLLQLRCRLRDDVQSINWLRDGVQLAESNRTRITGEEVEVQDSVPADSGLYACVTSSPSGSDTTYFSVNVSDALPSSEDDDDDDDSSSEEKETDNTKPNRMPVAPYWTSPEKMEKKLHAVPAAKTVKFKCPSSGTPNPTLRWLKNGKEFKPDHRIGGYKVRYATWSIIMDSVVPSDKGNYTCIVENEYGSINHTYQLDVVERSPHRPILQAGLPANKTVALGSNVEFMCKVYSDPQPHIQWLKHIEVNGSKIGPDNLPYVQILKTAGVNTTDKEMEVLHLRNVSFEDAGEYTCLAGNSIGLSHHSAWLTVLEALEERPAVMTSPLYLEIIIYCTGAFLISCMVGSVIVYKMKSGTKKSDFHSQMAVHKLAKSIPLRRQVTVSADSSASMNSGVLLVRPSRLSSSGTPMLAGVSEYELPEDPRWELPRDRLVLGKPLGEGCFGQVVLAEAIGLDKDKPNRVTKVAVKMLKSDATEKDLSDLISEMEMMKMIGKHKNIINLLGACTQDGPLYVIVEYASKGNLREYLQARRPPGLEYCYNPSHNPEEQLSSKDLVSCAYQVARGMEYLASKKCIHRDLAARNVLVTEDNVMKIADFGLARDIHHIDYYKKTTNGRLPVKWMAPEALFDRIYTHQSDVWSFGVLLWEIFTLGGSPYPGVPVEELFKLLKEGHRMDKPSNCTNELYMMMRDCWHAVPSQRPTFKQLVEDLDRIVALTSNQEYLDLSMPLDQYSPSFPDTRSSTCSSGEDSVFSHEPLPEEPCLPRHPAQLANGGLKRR

Chain of FGFR2 (P21802 22-821): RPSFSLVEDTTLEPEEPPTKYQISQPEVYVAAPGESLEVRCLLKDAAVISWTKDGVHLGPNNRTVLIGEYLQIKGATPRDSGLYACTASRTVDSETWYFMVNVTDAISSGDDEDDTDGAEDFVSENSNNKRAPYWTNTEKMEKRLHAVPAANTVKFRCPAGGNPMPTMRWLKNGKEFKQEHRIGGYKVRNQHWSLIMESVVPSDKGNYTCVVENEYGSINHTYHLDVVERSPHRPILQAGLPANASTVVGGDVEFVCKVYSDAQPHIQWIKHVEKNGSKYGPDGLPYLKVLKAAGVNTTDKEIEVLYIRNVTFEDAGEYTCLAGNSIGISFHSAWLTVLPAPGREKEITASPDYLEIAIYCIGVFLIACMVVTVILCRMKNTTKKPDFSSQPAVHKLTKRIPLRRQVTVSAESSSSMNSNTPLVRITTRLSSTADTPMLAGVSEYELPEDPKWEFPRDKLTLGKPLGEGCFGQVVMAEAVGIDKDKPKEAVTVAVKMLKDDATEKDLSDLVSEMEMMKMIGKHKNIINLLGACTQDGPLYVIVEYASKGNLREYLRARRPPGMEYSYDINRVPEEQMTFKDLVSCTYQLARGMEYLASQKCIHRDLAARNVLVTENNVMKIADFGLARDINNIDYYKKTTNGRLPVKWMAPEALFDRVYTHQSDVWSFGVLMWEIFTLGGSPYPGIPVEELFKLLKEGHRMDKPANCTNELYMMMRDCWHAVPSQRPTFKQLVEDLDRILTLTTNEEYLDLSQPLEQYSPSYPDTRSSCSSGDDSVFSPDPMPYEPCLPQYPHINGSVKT
Chain of wild-type un-phosphorylated FGFR3 protein (P22607 23-806): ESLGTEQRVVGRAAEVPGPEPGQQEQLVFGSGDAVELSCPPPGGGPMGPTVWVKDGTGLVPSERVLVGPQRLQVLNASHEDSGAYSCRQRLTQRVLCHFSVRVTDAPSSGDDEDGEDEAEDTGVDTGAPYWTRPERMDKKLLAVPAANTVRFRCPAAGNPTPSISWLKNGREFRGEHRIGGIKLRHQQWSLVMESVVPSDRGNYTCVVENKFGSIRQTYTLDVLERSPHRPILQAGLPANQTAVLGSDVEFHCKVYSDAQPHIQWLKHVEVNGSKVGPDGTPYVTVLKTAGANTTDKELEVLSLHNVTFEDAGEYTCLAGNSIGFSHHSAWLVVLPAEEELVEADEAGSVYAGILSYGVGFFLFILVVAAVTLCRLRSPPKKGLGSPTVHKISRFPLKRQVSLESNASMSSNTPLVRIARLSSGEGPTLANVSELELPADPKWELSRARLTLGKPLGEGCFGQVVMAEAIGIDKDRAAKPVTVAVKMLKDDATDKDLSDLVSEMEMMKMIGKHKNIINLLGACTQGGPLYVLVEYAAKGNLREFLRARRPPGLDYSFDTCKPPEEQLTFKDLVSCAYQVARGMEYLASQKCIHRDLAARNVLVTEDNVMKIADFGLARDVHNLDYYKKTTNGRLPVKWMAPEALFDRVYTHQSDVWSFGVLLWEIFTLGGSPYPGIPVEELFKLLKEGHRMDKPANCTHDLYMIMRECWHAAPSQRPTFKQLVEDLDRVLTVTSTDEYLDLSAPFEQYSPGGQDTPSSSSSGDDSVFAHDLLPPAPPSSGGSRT

SMILES	IC50 (FGFR2; pre-incubated for 4 hours) [µM]	IC50 [1] [µM]	IC50 (FGFR1) [µM]	IC50 (FGFR2) [µM]
CNC(=O)c1cc(C)c(F)c(-c2cnn3cc(-c4cnn(CC(=O)N(C)C)c4)c(N[C@H]4CCOC4)nc23)c1 [Example 39, (S)-3-(6-(1-(2-(Dimethylamino)-2-oxoethyl)-1H-pyrazol-4-y1)-5-((tetrahydrofuran-3-yl)amino)pyrazolo[1,5-a]pyrimidin-3-y1)-4-fluoro-N,5-dimethylbenzamide]	–	< 0.01	0.01 to 0.03	< 0.01
CNC(=O)c1cc(C)c(F)c(-c2cnn3cc(-c4cnn(C)c4)c(O[C@H]4CCOC4)nc23)c1 [Example 5, (S)-4-Fluoro-N,3-dimethyl-5-(6-(1-methyl-1H-pyrazol-4-yl)-5-((tetrahydrofuran-3-yl)oxy)pyrazolo[1,5-a]pyrimidin-3-yl)benzamide]	< 0.01	< 0.01	< 0.01	–
CNC(=O)c1cc(C#N)cc(-c2cnn3cc(-c4ccncc4)c(O[C@H]4CCOC4)nc23)c1 [Example 30, (S)-3-Cyano-N-methyl-5-(6-(pyridin-4-yl)-5-((tetrahydrofuran-3-yl)oxy)pyrazolo[1,5-a]pyrimidin-3-yl)benzamide]	0.01 to 0.03	< 0.01	0.03 to 0.2	–
CNC(=O)c1cc(C#N)cc(-c2cnn3cc(-c4cncc(C)c4)c(O[C@H]4CCOC4)nc23)c1 [Example 29, (S)-3-Cyano-N-methyl-5-(6-(5-methylpyridin-3-yl)-5-((tetrahydrofuran-3-yl)oxy)pyrazolo[1,5-a]pyrimidin-3-yl)benzamide]	0.03 to 0.2	–	≥ 0.2	–
CNC(=O)c1cncc(-c2cnn3cc(-c4cnn(C5CC5)c4)c(O[C@H]4CCOC4)nc23)c1 [Example 21, (S)-5-(6-(1-Cyclopropyl-1H-pyrazol-4-yl)-5-((tetrahydrofuran-3-yl)oxy)pyrazolo[1,5-a]pyrimidin-3-yl)-N-methylnicotinamide]	< 0.01	< 0.01	0.03 to 0.2	–
CNC(=O)c1cc(-c2cnn3cc(-c4cnn(CCOC)c4)c(N[C@H]4CCOC4)nc23)c(F)c(C(F)F)c1 [Example 50, (S)-3-(Difluoromethyl)-4-fluoro-5-(6-(1-(2-methoxyethyl)-1H-pyrazol-4-yl)-5-((tetrahydrofuran-3-yl)amino)pyrazolo[1,5-a]pyrimidin-3-yl)-N-methylbenzamide]	< 0.01	< 0.01	0.01 to 0.03	–
CNC(=O)c1cc(F)c(F)c(-c2cnn3cc(-c4cnn(CC5CCOCC5)c4)c(N[C@H]4CCOC4)nc23)c1 [Example 54, (S)-3,4-Difluoro-N-methyl-5-(6-(1-((tetrahydro-2H-pyran-4-yl)methyl)-1H-pyrazol-4-y1)-5-((tetrahydrofuran-3-yl)amino)pyrazolo[1,5-a]pyrimidin-3-yl)benzamide]	–	< 0.01	< 0.01	< 0.01
CNC(=O)c1cc(F)c(F)c(-c2cnn3cc(-c4cnn(CCN5CCOCC5)c4)c(O[C@H]4CCOC4)nc23)c1 [Example 14, (S)-3,4-Difluoro-N-methy1-5-(6-(1-(2-morpholinoethyl)-1H-pyrazol-4-y1)-5-((tetrahydrofuran-3-yl)oxy)pyrazolo[1,5-a]pyrimidin-3-yl)benzamide]	–	< 0.01	< 0.01	< 0.01
CNC(=O)c1cc(-c2cnn3cc(-c4cnn(C5CCOC5)c4)c(N[C@H]4CCOC4)nc23)c(F)c(C(F)F)c1 (stereo partly drawn) [Example 49, 3-(Difluoromethyl)-4-fluoro-N-methyl-5-(6-(1-(tetrahydrofuran-3-yl)-1H-pyrazol-4-yl)-5-(((S)-tetrahydrofuran-3-yl)amino)pyrazolo[1,5-a]pyrimidin-3-y1)benzamide]	–	< 0.01	0.01 to 0.03	< 0.01
CNC(=O)c1cc(F)c(F)c(-c2cnn3cc(-c4ccc(C)nc4)c(O[C@H]4CCOC4)nc23)c1 [Example 15, (S)-3,4-Difluoro-N-methyl-5-(6-(6-methylpyridin-3-y1)-5-((tetrahydrofuran-3-yl)oxy)pyrazolo[1,5-a]pyrimidin-3-yl)benzamide]	–	< 0.01	0.03 to 0.2	< 0.01
CNC(=O)c1cc(F)c(F)c(-c2cnn3cc(-c4ccc(C(C)(C)O)nc4)c(N[C@H]4CCOC4)nc23)c1 [Example 57, (S)-3,4-Difluoro-5-(6-(6-(2-hydroxypropan-2-yl)pyridin-3-y1)-5-((tetrahydrofuran-3-yl)amino)pyrazolo[1,5-a]pyrimidin-3-y1)-N-methylbenzamide]	–	< 0.01	0.03 to 0.2	< 0.01
CNC(=O)c1ccc(F)c(-c2cnn3cc(-c4cnn(C)c4)c(OC4CCOC4)nc23)c1 (racemic) [Example 2, 4-Fluoro-N-methyl-3-(6-(1-methyl-1H-pyrazol-4-yl)-5-((tetrahydrofuran-3-yl)oxy)pyrazolo[1,5-a]pyrimidin-3-yl)benzamide]	< 0.01	< 0.01	0.03 to 0.2	–
CNC(=O)c1cc(-c2cnn3cc(-c4cnn(C5CCC5)c4)c(O[C@H]4CCOC4)nc23)cc(S(C)(=O)=O)c1 [Example 32, (S)-3-(6-(1-Cyclobutyl-1H-pyrazol-4-yl)-5-((tetrahydrofuran-3-yl)oxy)pyrazolo[1,5-a]pyrimidin-3-yl)-N-methyl-5-(methylsulfonyl)benzamide]	0.03 to 0.2	≥ 0.2	≥ 0.2	–
CNC(=O)c1cc(C#N)cc(-c2cnn3cc(-c4cnn(C)c4)c(N[C@H]4CCOC4)nc23)c1 [Example 8, (S)-3-Cyano-N-methyl-5-(6-(1-methyl-1H-pyrazol-4-yl)-5-((tetrahydrofuran-3-yl)amino)pyrazolo[1,5-a]pyrimidin-3-yl)benzamide]	–	< 0.01	0.03 to 0.2	–

Second part, led by results:

IC50 (FGFR2; pre-incubated for 4 hours) [µM]	IC50 [1] [µM]	IC50 (FGFR1) [µM]	SMILES	IC50 (FGFR2) [µM]
< 0.01	< 0.01	< 0.01	CNC(=O)c1cc(F)c(F)c(-c2cnn3cc(-c4cnn(C5CN(C)C5)c4)c(O[C@H]4CCOC4)nc23)c1 [Example 17, (S)-3,4-Difluoro-N-methyl-5-(6-(1-(1-methylazetidin-3-yl)-1H-pyrazol-4-yl)-5-((tetrahydrofuran-3-yl)oxy)pyrazolo[1,5-a]pyrimidin-3-yl)benzamide]	–
0.01 to 0.03	–	≥ 0.2	CNC(=O)c1cc(-c2cnn3cc(-c4cnc(NC)c(C)c4)c(O[C@H]4CCOC4)nc23)c(F)c(C(F)F)c1 [Example 24, (S)-3-(Difluoromethyl)-4-fluoro-N-methyl-5-(6-(5-methyl-6-(methylamino)pyridin-3-yl)-5-((tetrahydrofuran-3-yl)oxy)pyrazolo[1,5-a]pyrimidin-3-yl)benzamide]	–
< 0.01	< 0.01	0.03 to 0.2	CNC(=O)c1cncc(-c2cnn3cc(-c4ccc(N5CCN(C)CC5)nc4)c(O[C@H]4CCOC4)nc23)c1 [Example 19, (S)-N-Methyl-5-(6-(6-(4-methylpiperazin-1-yl)pyridin-3-yl)-5-((tetrahydrofuran-3-yl)oxy)pyrazolo[1,5-a]pyrimidin-3-yl)nicotinamide]	–
0.01 to 0.03	–	≥ 0.2	CNC(=O)c1cc(C)c(F)c(-c2cnn3cc(-c4ccnnc4)c(N[C@H]4CCOC4)nc23)c1 [Example 44, (S)-4-Fluoro-N,3-dimethyl-5-(6-(pyridazin-4-yl)-5-((tetrahydrofuran-3-yl)amino)pyrazolo[1,5-a]pyrimidin-3-yl)benzamide]	–
< 0.01	< 0.01	0.03 to 0.2	CNC(=O)c1cccc(-c2cnn3cc(-c4cnn(C)c4)c(OC4CCOC4)nc23)c1 (racemic) [Example 1, N-Methyl-3-(6-(1-methyl-1H-pyrazol-4-yl)-5-((tetrahydrofuran-3-yl)oxy)pyrazolo[1,5-a]pyrimidin-3-yl)benzamide]	–
0.01 to 0.03	< 0.01	≥ 0.2	CNC(=O)c1cc(C#N)cc(-c2cnn3cc(-c4ccc(C)nc4)c(O[C@H]4CCOC4)nc23)c1 [Example 28, (S)-3-Cyano-N-methyl-5-(6-(6-methylpyridin-3-yl)-5-((tetrahydrofuran-3-yl)oxy)pyrazolo[1,5-a]pyrimidin-3-yl)benzamide]	–
–	< 0.01	0.03 to 0.2	CNC(=O)c1cncc(-c2cnn3cc(-c4cnn(C)c4)c(N[C@H]4CCOC4)nc23)c1 [Example 7, (S)—N-Methyl-5-(6-(1-methyl-1H-pyrazol-4-yl)-5-((tetrahydrofuran-3-yl)amino)pyrazolo[1,5-a]pyrimidin-3-yl)nicotinamide]	–
< 0.01	< 0.01	< 0.01	CNC(=O)c1cc(F)c(F)c(-c2cnn3cc(-c4cnn(Cc5cccnc5)c4)c(N[C@H]4CCOC4)nc23)c1 [Example 52, (S)-3,4-Difluoro-N-methyl-5-(6-(1-(pyridin-3-ylmethyl)-1H-pyrazol-4-yl)-5-((tetrahydrofuran-3-yl)amino)pyrazolo[1,5-a]pyrimidin-3-yl)benzamide]	–
< 0.01	< 0.01	0.03 to 0.2	CNC(=O)c1cc(C)c(F)c(-c2cnn3cc(-c4cnc(N5CCN(C)CC5)o4)c(N[C@H]4CCOC4)nc23)c1 [Example 70, (S)-4-Fluoro-N,3-dimethyl-5-(6-(2-(4-methylpiperazin-1-yl)oxazol-5-yl)-5-((tetrahydrofuran-3-yl)amino)pyrazolo[1,5-a]pyrimidin-3-yl)benzamide]	–
< 0.01	< 0.01	0.03 to 0.2	CNC(=O)c1cc(-c2cnn3cc(-c4cccnc4)c(O[C@H]4CCOC4)nc23)c(F)c(C(F)F)c1 [Example 23, (S)-3-(Difluoromethyl)-4-fluoro-N-methyl-5-(6-(pyridin-3-yl)-5-((tetrahydrofuran-3-yl)oxy)pyrazolo[1,5-a]pyrimidin-3-yl)benzamide]	–
–	< 0.01	0.03 to 0.2	CNC(=O)c1cncc(-c2cnn3cc(-c4cnn(C(C)C)c4)c(N[C@H]4CCOC4)nc23)c1 [Example 10, (S)-5-(6-(1-Isopropyl-1H-pyrazol-4-yl)-5-((tetrahydrofuran-3-yl)amino)pyrazolo[1,5-a]pyrimidin-3-yl)-N-methylnicotinamide]	–
0.01 to 0.03	–	≥ 0.2	CNC(=O)c1cc(C#N)cc(-c2cnn3cc(-c4cccnc4)c(O[C@H]4CCOC4)nc23)c1 [Example 27, (S)-3-Cyano-N-methyl-5-(6-(pyridin-3-yl)-5-((tetrahydrofuran-3-yl)oxy)pyrazolo[1,5-a]pyrimidin-3-yl)benzamide]	–
